Measured values published in patent publication US12569170B2, “Paramagnetic sodium NMR macrocyclic-based biosensors, and associated methods” (Yale University, priority 2021, dated 2026).
“And” between values parts separate entries of the source, which are not always exact repeats. Equal values may be shown once. “Also recorded” adds a separate entry of the source.

Assays:
[1] = doses presently being used for preclinical studies; cited from earlier work
[2] = In vitro ^23Na-NMR, two-compartment coaxial cylinder tube (^23Na shiftability); assay type: physicochemical
Excerpt: The goal of these studies was to separate the total Na^+ signal (Na^+T) into distinct signals for blood (Na^+b), interstitial (Na^+e), and intracellular (Na^+i) pools (FIG. 1). The shifting mechanism induced by exogenous TmDOTP^5− and endogenous biological factors on the ^23Na chemical shift in vitro is depicted in FIGS. 1C-1G. A two-compartment coaxial cylinder NMR tube setup in vitro was used to mimic Na^+ in interstitial/intracellular pools. The inner (smaller) and outer (larger) compartments both contained 150 mM NaCl while the latter also contained TmDOTP^5− at various concentrations. The setup was subjected to several different pH and temperature conditions. The inner compartment, which lacked TmDOTP^5− to represent the intracellular space in vivo, produced a small but unshifted ^23Na peak at 0 ppm. The larger ^23Na peak was shifted downfield by TmDOTP^5−, with the difference in peak integrals stemming from different compartment volumes.
The ^23Na shiftability for TmDOTP^5− s[paraCA^n−]=[…] was 11.1×larger than the shiftability for pH (spH=0.25 ppm/pH unit) and 92.3×larger than the shiftability for temperature (sT=0.03 ppm/° C.). This means that addition of 1.1 mM TmDOTP^5− would induce a ˜3 ppm shift in the ^23Na peak. Conversely, a maximal change of 0.4 in pH units, which is observed between normal and tumor tissues, would induce only a ˜0.1 ppm ^23Na shift. A similar ^23Na shift by temperature would require a 3.3° C. change, which is unlikely in vivo. Based on the pH and temperature ranges observed in vivo (including tumors), the effect from [TmDOTP^5−] dominates the ^23Na chemical shift by 95%. Therefore, [TmDOTP^5−] is several orders of magnitude more sensitive in shifting the ^23Na resonance than typical in vivo factors. Furthermore, the ^23Na shiftability arising from [TmDOTP^5−] and pH/temperature effects is much larger than T2 broadening from TmDOTP^5− (FIG. 1C). […] (FIGS. 1D-1E). However, for in vivo scenarios the ranges shown for pH (2 full pH units) and temperature (15° C. interval) are overestimated, and where [Na^+] far exceeds [TmDOTP^5−] based on prior experiments. In blood and interstitial spaces, [Na^+] is ˜30-100×greater than [TmDOTP^5−].
In vitro experiments were performed using a 2-compartment coaxial cylindrical 7-inch NMR tube setup from WilmadLabGlass (Vineland, NJ, USA). One compartment contained 150 mM NaCl and the other contained the same but with varying amounts of TmDOTP^5− (1-10 mM) and 10% v/v ^2H2O to lock the spectrometer frequency using the ^2H2O signal. NaCl and ^2H2O were purchased from Sigma-Aldrich (St. Louis, MO, USA), and TmDOTP^5− was purchased as the sodium salt Na5TmDOTP from Macrocyclics (Plano, TX, USA). The 5-mm opening of the NMR tube permitted an insert (the inner compartment) whose 50-mm-long tip had inner and outer diameters of 1.258 and 2.020 mm, respectively. The outer-to-inner volume ratio between the two compartments was 8.6. The geometry of the setup allowed 645 μL total in the outer compartment to fill around the tip. Each solution was pH-adjusted using HCl or KOH to give 5 different pH values.
^23Na-NMR spectra were collected on a Bruker Avance III HD 500 MHz vertical-bore spectrometer (Bruker, Billerica, MA, USA) interfaced with Bruker TopSpin v2.1 software. A Bruker 500 MHz TBO liquid broadband probe with z-gradient was used in all frequencies, and an inner coil was used to detect X-nuclei. A single ^23Na square pulse (50 μs) was used to globally excite the volume of interest (repetition time TR=275 ms) collecting 2048 free induction decay (FID) points in the time domain with an acquisition time taq=38.9 ms, averaged 4096 times. Each set of scans was repeated at a series of temperatures: 27, 30, 34, 37, and 40° C. Spectra were analyzed using 10 Hz line broadening (for improved delineation of major peaks and reduction of baseline noise) and manual zeroth- and first-order phasing. […]

U87-bearing rat brain = test: In vivo ^23Na-MRSI line broadening in glioma models; conditions: glioma models, after agent infusion
Excerpt: FIGS. 10C-10F illustrates images according to certain embodiments of the disclosure. […] However, the ^23Na linewidth analysis by TmDOTP^5− is confounded by its high ^23Na shiftability. This peak separation in vivo overestimates the full-width at half-maximum (FWHM) calculations and exaggerates the measured ^23Na linewidths.
Slice 1 is most superficial, and slice 3 is the deepest. The tumor outline is depicted in white in all columns.
This establishes GdDOTP^5−-induced ^23Na linewidth broadening as a potential surrogate marker for the altered Na^+ biodistribution within tumors. Thus, in brain tumor models, TmDOTP^5− with ^23Na-NMR can separate Na^+ in intracellular, blood, and interstitial pools, while GdDOTP^5− can distinguish Na^+ within intracellular and extracellular (i.e., blood and interstitial) pools.
Because the majority of the present studies looked at ^23Na chemical shift, the line broadening capabilities of these paramagnetic agents were also interrogated. […] This is due to the high magnetic moment of Gd^3+ which contributes to some degree of anisotropy to the paramagnetic susceptibility. […] Crucially, this family of paramagnetic agents has allowed to insightful probing of the tumor microenvironment and drawing of significant conclusions about tumor aggressiveness based on spectroscopic analysis.

[3] = Comparison of ^23Na shiftability and broadening potential of DOTP agents; assay type: physicochemical
[4] = cited from earlier work
[5] = Bulk magnetic susceptibility (BMS) contribution to chemical shift in phantoms; assay type: physicochemical; conditions: phantoms parallel, perpendicular to B0 and spherical
Excerpt: Upon translation of the present in vitro results to in vivo situations, certain confounding factors must be addressed. In the interstitial space, there are additional cations such as calcium (Ca^2+), magnesium (Mg^2+) and K^+ which will also bind to anionic contrast agents like TmDOTP^5−. However, physiologically their concentrations are low compared to Na^+. […] Additionally, there is a contribution to the chemical shift from bulk magnetic susceptibility (BMS) changes brought about by TmDOTP^5− in addition to the hyperfine shifts induced by interactions with Na^+. Experiments were performed on different DOTP^8− salts in phantoms parallel and perpendicular to the main magnetic field B0, and also spherical phantoms in which there was no BMS contribution. Only a small portion (˜2%) of the total chemical shift for TmDOTP^5− was due to BMS arising due to anisotropy of the paramagnetic susceptibility, and the remainder was the hyperfine shift.

O=P([O-])([O-])CN1CCN(CP(=O)([O-])[O-])CCN(CP(=O)([O-])[O-])CCN(CP(=O)([O-])[O-])CC1.[Na+].[Na+].[Na+].[Na+].[Na+].[Tm+3] [TmDOTP^5−, sodium thulium (III) 1,4,7,10-tetraazacyclododecane-1,4,7,10-tetrakis(methylenephosphonate)]
toxicity [1]: non-toxic | ^23Na shifts caused by in vivo agent concentrations ([2]; 1-2 mM TmDOTP^5−): 2.8-5.5 ppm | shift in the ^23Na peak induced by addition of agent ([2]; addition of 1.1 mM TmDOTP^5−): ~3 ppm | ^23Na shiftability for pH (spH) ([2]; in vitro, 150 mM NaCl with TmDOTP^5−): 0.25 ppm/pH unit | ^23Na shiftability for temperature (sT) ([2]; in vitro, 150 mM NaCl with TmDOTP^5−, 27-40° C.): 0.03 ppm/° C. | ^23Na shift variation caused by pH ([2]; maximal change of 0.4 pH units between normal and tumor tissue): ~0.1 ppm | shiftability for TmDOTP^5− relative to shiftability for pH ([2]; ratio): 11.1 × | shiftability for TmDOTP^5− relative to shiftability for temperature ([2]; ratio): 92.3 × | ^23Na shift variation caused by temperature ([2]; temperature difference ~0.5° C.): 0.015 ppm | share of the ^23Na chemical shift dominated by [TmDOTP^5−] effect ([2]; versus pH and temperature ranges observed in vivo): 95% and 96-98% | ^23Na line broadening in tumor versus normal tissue (U87-bearing rat brain): most prominent within the tumor; also recorded: substantial ^23Na line broadening within tumor models compared to normal tissue | broadening potential (sensitivity of linewidth to agent concentration), words [3]: high broadening potentials | shiftability (sensitivity of ^23Na chemical shift to agent concentration), words [3]: high shiftability | TmDOTP^5− in the cortex and subcortex ([4]; infusion protocol with probenecid, without renal ligation): ~0.1 μmol TmDOTP^5−/g BW | in vivo concentrations in blood and interstitial spaces ([4]; rat, in vivo): 1 to 2 mM | portion of the total chemical shift due to BMS [5]: ~2%
